# Measurements reported in patent publication US20030212142A1, “Use of derivatives of valproic acid and 2-valproenic acid amides for the treatment of mania in bipolar disorder” (Yissum Research Development Company of the Hebrew …, priority 2000, published 2003).
# Entries after “also recorded” stand apart in the source; their conditions may differ.
# Test system: amphetamine-induced hyperactivity
# Experiment: amphetamine-induced hyperactivity model of mania in rats (activity meter, rearing)
# Assay type: in vivo, male Sprague Dawley rats
# Conditions: Compound 1 200 mg/kg by gavage; for Vertical Activity (Rearing), Mean Activity, Amphetamine challenge: amphetamine 0.5 mg/kg s.c. challenge; for Vertical Activity (Rearing), Mean Activity, Amphetamine challenge / Vertical Activity (Rearing), Mean activity, Saline challenge: movements per 30 min, Li+ 6 mg/kg by gavage; for Vertical Activity (Rearing), Mean activity, Saline challenge: saline s.c. challenge
# Description: Evaluation of possible anti-bipolar effects of Compound 1 was followed in the amphetamine-induced hyperactivity model of mania in rats. Activities of rats were followed in an activity meter (Elvicom, Israel) based on 2 levels laser beams and equipped with a computerized system that can count the vertical movements of rats (rearing). Activities were recorded for -30 min for each session, and the resultant appropriate movement reported per 30 min. Rats were housed under a 12 hr light/dark cycle and the behavioral testing was conducted in the light phase.
# The activities of rats following treatment with Compound 1, Li^+ (the standard drug for mania), and a control group were followed before and after being challenged with amphetamine. The statistical analyses were conducted using a two way ANOVA for the effects of drugs, amphetamine (repeated measure) and the drug-amphetamine interaction.
# In these experiments 30 male Sprague Dawley (weighing 200-250 g) rats were equally divided into 3 treatment groups: control, Li^+ (6 mg/kg by gavage)), and Compound 1 (200 mg/kg by gavage) (Drugs were suspended in 5% methyl cellulose). Half of the rats in each group were challenged (administered) amphetamine (0.5 mg/kg subsutaneously (s.c.)) and the other half was given saline (s.c.). Ten minutes later all rats were placed in the activity meter. One week later the procedure was repeated, except that the order of treatment was reversed; those rats which received saline on the first day were given amphetamine and those given amphetamine the first day were administered saline.
Compound,"Vertical Activity (Rearing), Mean Activity, Amphetamine challenge","Vertical Activity (Rearing), Mean activity, Saline challenge","effect on amphetamine-induced rearing compared to control animals challenged with amphetamine (amphetamine 0.5 mg/kg s.c., p=0.06)"
"[Li] [Li, lithium, reference compound]",126.7,59.8,–
CCCC(CCC)C(=O)NCC(N)=O [Compound 1],71.3,34.1,decreases amphetamine-induced hyperactivity; also recorded: reduced the rearing; also recorded: decreased the induced rearing in a similar manner as Li^+
